Key:
[1] = biological target: T1, MIF (Homo sapiens, UniProt P14174); assay: Covalent modification of MIF by MALDI-TOF MS and tryptic peptide mapping; type: binding; conditions: for site of covalent modification of MIF: trypsin digestion, peptide mapping, MS/MS, 10 μM
T1 sequence (P14174 2-115): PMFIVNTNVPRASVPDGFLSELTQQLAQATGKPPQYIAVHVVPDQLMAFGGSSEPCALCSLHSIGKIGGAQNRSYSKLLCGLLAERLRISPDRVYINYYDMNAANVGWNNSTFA

[2] = biological target: AITC-modified MIF (human MIF covalently modified at Pro1 by allyl isothiocyanate) (human) (UniProt P14174); assay: SEC-MALS
[3] = tested on: human macrophages; assay: Glucocorticoid overriding assay; type: cell-based
[4] = biological target: EITC-modified MIF (human MIF covalently modified at Pro1 by ethyl isothiocyanate) (human) (UniProt P14174); assay: SEC-MALS
[5] = biological target: MITC-modified MIF (human MIF covalently modified at Pro1 by methallyl isothiocyanate) (human) (UniProt P14174); assay: SEC-MALS
[6] = biological target: T1, MIF; assay: MIF tautomerase activity; type: biochemical
[7] = biological target: human macrophage migration inhibitory factor (MIF), unmodified (human) (UniProt P14174); assay: SEC-MALS
[8] = biological target: human macrophage migration inhibitory factor (MIF), unmodified (human) (UniProt P14174); assay: AUC
[9] = biological target: BITC-modified MIF (human MIF covalently modified at Pro1 by benzyl isothiocyanate) (human) (UniProt P14174); assay: SEC-MALS
[10] = biological target: BITC-modified MIF (human MIF covalently modified at Pro1 by benzyl isothiocyanate) (human) (UniProt P14174); assay: AUC
[11] = biological target: murine MIF (Mus musculus, UniProt P34884); assay: MIF tautomerase activity; type: biochemical; conditions: read-out: inhibition of the tautomerase activity
[12] = tested on: MIF; assay: Covalent modification of MIF by MALDI-TOF MS and tryptic peptide mapping; type: binding, human; conditions: 10 μM BITC, 60 min
[13] = biological target: ubiquitin (Homo sapiens, UniProt P0CG47); assay: BITC modification specificity by MALDI-TOF; type: binding; conditions: equimolar, 1 h or overnight at RT
[14] = tested on: lysozyme; assay: BITC modification specificity by MALDI-TOF; type: binding; conditions: equimolar, 1 h or overnight at RT
[15] = biological target: α-synuclein (Homo sapiens, UniProt P37840); assay: BITC modification specificity by MALDI-TOF; type: binding; conditions: equimolar, 1 h or overnight at RT
[16] = biological target: T1, MIF; assay: Sedimentation velocity analytical ultracentrifugation of MIF; conditions: MIF 10 μM preincubated with 6 μM BITC 1 h RT
[17] = tested on: HeLa cells; assay: Phospho Akt activation by MIF; type: cell-based, human
[18] = biological target: 2PITC-modified MIF (human MIF covalently modified at Pro1 by 2-piperidinoethyl isothiocyanate) (human) (UniProt P14174); assay: SEC-MALS

Q: How did the “site of covalent modification of MIF” value [1] turn out when CCN=C=S [EITC, ethyl isothiocyanate] was run?
A: shown to modify MIF at the N-terminal Pro residue

Q: Which stoichiometry N [2] does the source give for “AITC-modified MIF (human MIF covalently modified at Pro1 by allyl isothiocyanate) (from UniProt P14174 1-115) (natural protein)” here?
A: 3

Q: Which “TNF production by LPS-stimulated monocytes” value ([3]; dexamethasone 100 nM) does the source give for C[C@@H]1C[C@H]2[C@@H]3CCC4=CC(=O)C=C[C@]4(C)[C@@]3(F)[C@@H](O)C[C@]2(C)[C@@]1(O)C(=O)CO [dexamethasone, reference compound] here?
A: inhibited TNF production

Q: With “EITC-modified MIF (human MIF covalently modified at Pro1 by ethyl isothiocyanate) (from UniProt P14174 1-115) (natural protein)” as the molecule, how does the stoichiometry N [4] read?
A: 3

Q: With S=C=NC1CC1 [CPITC, cyclopropyl isothiocyanate] as the molecule, how does the “site of covalent modification of MIF” value [1] read?
A: shown to modify MIF at the N-terminal Pro residue

Q: “MITC-modified MIF (human MIF covalently modified at Pro1 by methallyl isothiocyanate) (from UniProt P14174 1-115) (natural protein)” was tested. Which stoichiometry N [5] did it give?
A: 3

Q: What does the source list for S=C=NCCN1CCCCC1 [2PITC, 2-Piperidinoethyl isothiocyanate]?
A: IC50 [6]: 3.09 µM; site of covalent modification of MIF [1]: shown to modify MIF at the N-terminal Pro residue

Q: How did the “site of covalent modification of MIF” value [1] turn out when C=CCN=C=S [AITC, allyl isothiocyamate] was run?
A: shown to modify MIF at the N-terminal Pro residue

Q: Which results are given for “human macrophage migration inhibitory factor (MIF), unmodified (from UniProt P14174 1-115) (natural protein)”?
A: stoichiometry N [7]: 3; stoichiometry N [8]: 3

Q: For “BITC-modified MIF (human MIF covalently modified at Pro1 by benzyl isothiocyanate) (from UniProt P14174 1-115) (natural protein)”, which stoichiometry N [9] is on record?
A: 3

Q: And the stoichiometry N [10]?
A: 3

Q: How did the inhibition at 10 µM ([6]; read-out: inhibition of the tautomerase activity) turn out when S=C=NCc1ccccc1 [BITC, Benzyl isothiocyanate] was run?
A: 100%

Q: And the inhibition at 10 µM [11]?
A: 100%

Q: And the “formation of BITC-MIF adduct (MALDI-TOF)” value ([1]; concentrations > 10 μM, MIF 15 μM, Tris 50 mM pH 7.4, 60 min)?
A: complete conversion to the singly modified form of MIF

Q: And the “site of covalent modification of MIF” value [1]?
A: modification takes place at the N-terminal proline residue

Q: And the “modification of inactive MIF proteins” value ([12]; R73AΔ5, R73AΔ10 or P107)?
A: no modification was observed

Q: And the “modification of enzymatically active forms of MIF” value ([12]; Wt, N110C and R73A)?
A: total modification

Q: And the “modification of ubiquitin (MS)” value [13]?
A: No modification was detected

Q: What about the “modification of lysozyme (MS)” value [14] of the same molecule?
A: No modification was detected

Q: What about the “modification of α-synuclein (MS)” value [15] of the same molecule?
A: No modification was detected

Q: What about the “quaternary structure distribution of MIF (sedimentation velocity)” value [16] of the same molecule?
A: sedimented predominantly as a single species

Q: And the MIF-mediated dexamethasone overriding ([3]; BITC 10 μM, MIF 100 ng/mL, Dex 100 nM, LPS 100 ng/mL, 4 h)?
A: abrogated MIF-mediated dexamethasone overriding

Q: And the TNF production ([3]; BITC 10 μM, LPS-stimulated, compared with dexamethasone)?
A: decreased TNF production even more potently than dexamethasone

Q: And the macrophage viability ([3]; culture conditions used to induce TNF production (data not shown))?
A: did not alter macrophage viability

Q: And the “MIF-induced Akt phosphorylation” value ([17]; BITC 1 and 10 μM, MIF 50 ng/mL, 2 h)?
A: inhibited MIF-induced Akt phosphorylation

Q: And the “baseline Akt phosphorylation” value ([17]; BITC alone)?
A: did not modify baseline Akt phosphorylation

Q: With C=C(C)CN=C=S [MITC, methallyl Isothiocyanate] as the molecule, how does the “site of covalent modification of MIF” value [1] read?
A: shown to modify MIF at the N-terminal Pro residue

Q: Which stoichiometry N [18] does the source give for “2PITC-modified MIF (human MIF covalently modified at Pro1 by 2-piperidinoethyl isothiocyanate) (from UniProt P14174 1-115) (natural protein)” here?
A: 3

— PMC3607106 (Biochemistry, 2009)
